Here are results for 31 compounds from patent publication US20110105509A1 (Wyeth, LLC, priority 2009, published 2011).

This test addresses T1, CRTH2 (Homo sapiens, UniProt Q9Y5Y4).
T1 construct: expressed in transfected cells; host or cells: CHO cells
T1 sequence (Q9Y5Y4 1-395): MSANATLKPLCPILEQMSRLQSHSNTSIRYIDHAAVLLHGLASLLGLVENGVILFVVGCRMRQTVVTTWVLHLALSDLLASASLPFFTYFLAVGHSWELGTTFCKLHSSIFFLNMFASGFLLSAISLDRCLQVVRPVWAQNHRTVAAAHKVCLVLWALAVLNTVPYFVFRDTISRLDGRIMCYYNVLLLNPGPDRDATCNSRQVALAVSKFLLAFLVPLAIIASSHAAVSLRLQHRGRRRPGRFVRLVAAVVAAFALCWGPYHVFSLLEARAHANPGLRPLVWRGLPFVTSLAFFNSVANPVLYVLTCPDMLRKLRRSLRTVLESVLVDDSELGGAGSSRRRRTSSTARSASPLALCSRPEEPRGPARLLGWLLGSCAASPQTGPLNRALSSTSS
As to the kind of experiment: FRET based competitive immunoassay (cAMP) in CRTH2 expressing CHO cells. In kind it is cell-based. The following applies: CRTH2 expressing CHO cells incubated with forskolin and PGD2; Eu3+ cryptate-labeled anti-cAMP and d2-labeled cAMP. As for the experimental part:
FRET Assay: To evaluate potency compounds were tested in a FRET based competitive immunoassay in which CRTH2 expressing CHO cells were incubated in the presence of forskolin and PGD2 along with Eu3+ cryptate-labeled anti-cAMP and d2-labeled cAMP.
`Cc1c(-c2nn(CCC(C)(C)O)c(=O)c3ccccc23)c2cc(F)ccc2n1CC(=O)O` [Example 132, 2-(5-fluoro-3-(3-(3-hydroxy-3-methylbutyl)-4-oxo-3,4-dihydrophthalazin-1-yl)-2-methyl-1H-indol-1-yl)acetic acid] displayed an IC50 of 75 nM. `Cc1c(-c2cn(CC(F)(F)F)c(=O)c3c2CCCC3)c2cc(F)ccc2n1CC(=O)O` [Example 90, 2-(5-fluoro-2-methyl-3-(1-oxo-2-(2,2,2-trifluoroethyl)-1,2,5,6,7,8-hexahydro-isoquinolin-4-yl)-1H-indol-1-yl)acetic acid]: the half-maximal inhibitory concentration (IC50) was more than 1000 nM. `Cc1c(-c2nn(-c3ccccc3)c(=O)c3ccccc23)c2cc(F)ccc2n1CC(=O)O` [Example 205, 2-(5-fluoro-2-methyl-3-(4-oxo-3-phenyl-3,4-dihydrophthalazin-1-yl)-1H-indol-1-yl)-acetic acid]: the IC50 was found to be 60 nM. Then `Cc1c(Cc2ccc(=O)n(Cc3ccccc3F)c2)c2ccccc2n1CC(=O)O` [Example 31, 2-(3-((1-(2-Fluorobenzyl)-6-oxo-1,6-dihydropyridin-3-yl)methyl)-2-methyl-1H-indol-1-yl)acetic acid], with 41 nM.

In the case of `Cc1c(Cc2ccc(=O)n(Cc3ccc(F)cc3)n2)c2ccccc2n1CC(=O)O` [Example 76, 2-(3-((1-(4-fluorobenzyl)-6-oxo-1,6-dihydropyridazin-3-yl)methyl)-2-methyl-1H-indol-1-yl)acetic acid], the IC50 is 16 nM.

`Cc1c(Cc2ccc(=O)n(Cc3ccc(F)cc3F)c2)c2ccccc2n1CC(=O)O` [Example 21, 2-(3-((1-(2,4-Difluorobenzyl)-6-oxo-1,6-dihydropyridin-3-yl)methyl)-2-methyl-1H-indol-1-yl)acetic acid] gave an IC50 of 18 nM. For the compound `Cc1c(-c2nn(Cc3ccccc3)c(=O)c3ccccc23)c2cc(Cl)cc(Cl)c2n1CC(=O)O` [Example 245, 2-(3-(3-benzyl-4-oxo-3,4-dihydrophthalazin-1-yl)-5,7-dichloro-2-methyl-1H-indol-1-yl)acetic acid], the IC50 was 587 nM.

Regarding `Cc1c(-c2ccc(=O)n(Cc3ccc(F)cc3F)n2)c2cc(Cl)ccc2n1CC(=O)O` [Example 68, 2-(5-chloro-3-(1-(2,4-difluorobenzyl)-6-oxo-1,6-dihydropyridazin-3-yl)-2-methyl-1H-indol-1-yl)acetic acid], the IC50 stood at 10 nM. Take `Cc1c(-c2ccc(=O)n(Cc3cc(F)ccc3F)n2)c2cc(F)ccc2n1CC(=O)O` [Example 72, 2-(3-(1-(2,5-Difluorobenzyl)-6-oxo-1,6-dihydropyridazin-3-yl)-5-fluoro-2-methyl-1H-indol-1-yl)acetic acid]: the IC50 was 43 nM. Then `Cc1c(-c2ccc(=O)n(C(C)C)n2)c2cc(F)ccc2n1CC(=O)O` [Example 334, [5-fluoro-3-(1-isopropyl-6-oxo-1,6-dihydropyridazin-3-yl)-2-methyl-1H-indol-1-yl]-acetic acid], with 210 nM; and `Cc1c(-c2ccc(=O)n(Cc3cc(F)cc(F)c3)c2)c2cc(Cl)ccc2n1CC(=O)O` [Example 294, 2-(5-Chloro-3-(1-(3,5-difluorobenzyl)-6-oxo-1,6-dihydropyridin-3-yl)-2-methyl-1H-indol-1-yl)acetic acid], with 2 nM; and `Cc1c(-c2nn(Cc3ccc(Cl)cc3)c(=O)c3ccccc23)c2cc(Cl)ccc2n1CC(=O)O` [Example 1, 2-(5-Chloro-3-(3-(4-chlorobenzyl)-4-oxo-3,4-dihydrophthalazin-1-yl)-2-methyl-1H-indol-1-yl)acetic acid], with 15 nM. Then `Cc1c(Cc2ccc(=O)n(Cc3ccc(C(C)(C)O)cc3)n2)c2cc(F)ccc2n1CC(=O)O` [Example 238, 2-(5-fluoro-3-((1-(4-(2-hydroxypropan-2-yl)benzyl)-6-oxo-1,6-dihydropyridazin-3-yl)methyl)-2-methyl-1H-indol-1-yl)acetic acid], with 13 nM; and `Cc1c(-c2ccc(=O)n(CCC(F)(F)F)c2)c2cc(F)ccc2n1CC(=O)O` [Example 307, 2-(5-fluoro-2-methyl-3-(6-oxo-1-(3,3,3-trifluoropropyl)-1,6-dihydropyridin-3-yl)-1H-indol-1-yl)acetic acid], with 28 nM. `Cc1c(-c2nn(Cc3ccccc3)c(=O)c3ccccc23)c2cc(F)cc(F)c2n1CC(=O)O` [Example 244, 2-(3-(3-benzyl-4-oxo-3,4-dihydrophthalazin-1-yl)-5,7-difluoro-2-methyl-1H-indol-1-yl)acetic acid]: the IC50 was 60 nM. The same measure for `Cc1c(-c2nn(Cc3ccc(C(F)(F)F)cc3)c(=O)c3ccccc23)c2cc(F)ccc2n1CC(=O)O` [Example 204, 2-(5-fluoro-2-methyl-3-(4-oxo-3-(4-(trifluoromethyl)benzyl)-3,4-dihydrophthalazin-1-yl)-1H-indol-1-yl)acetic acid]: 10 nM; for `Cc1c(-c2ccc(=O)n(CC(C)C)n2)c2cc(F)ccc2n1CC(=O)O` [Example 333, 2-(5-fluoro-3-(1-isobutyl-6-oxo-1,6-dihydropyridazin-3-yl)-2-methyl-1H-indol-1-yl)acetic acid]: 111 nM; for `Cc1c(-c2ccc(=O)n(CCCC(F)(F)F)c2)c2cc(F)ccc2n1CC(=O)NS(C)(=O)=O` [Example 318, 2-(5-fluoro-2-methyl-3-(6-oxo-1-(4,4,4-trifluorobutyl)-1,6-dihydropyridin-3-yl)-1H-indol-1-yl)-N-(methylsulfonyl)acetamide]: more than 1000 nM. The same measure for `Cc1c(-c2nn(Cc3ccccc3)c(=O)c3ccccc23)c2cc(F)cc(S(C)(=O)=O)c2n1CC(=O)O` [Example 237, 2-(3-(3-benzyl-4-oxo-3,4-dihydrophthalazin-1-yl)-5-fluoro-2-methyl-7-(methyl-sulfonyl)-1H-indol-1-yl)acetic acid]: more than 1000 nM. `Cc1c(-c2nn(Cc3cccc(F)c3)c(=O)c3ccccc23)c2cc(F)ccc2n1CC(=O)O` [Example 329, {5-fluoro-3-[3-(3-fluorobenzyl)-4-oxo-3,4-dihydrophthalazin-1-yl]-2-methyl-1H-indol-1-yl}acetic acid] registered an IC50 of 3 nM. The same measure for `Cc1c(-c2nn(C3CC3)c(=O)c3ccccc23)c2cc(F)ccc2n1CC(=O)O` [Example 123, 2-(3-(3-cyclopropyl-4-oxo-3,4-dihydrophthalazin-1-yl)-5-fluoro-2-methyl-1H-indol-1-yl)acetic acid]: 22 nM; for `Cc1c(-c2nn(CCOc3ccccc3)c(=O)c3ccccc23)c2cc(F)ccc2n1CC(=O)O` [Example 222, 2-(5-fluoro-2-methyl-3-(4-oxo-3-(2-phenoxyethyl)-3,4-dihydrophthalazin-1-yl)-1H-indol-1-yl)acetic acid]: 1 nM.

Consider `Cc1c(-c2nn(Cc3nc4cc(C(F)(F)F)ccc4s3)c(=O)c3ccccc23)c2cc(Cl)ccc2n1CC(=O)O` [Example 100, 2-(5-chloro-2-methyl-3-(4-oxo-3-((5-(trifluoromethyl)benzo[d]thiazol-2-yl)-methyl)-3,4-dihydrophthalazin-1-yl)-1H-indol-1-yl)acetic acid], for which the IC50 was 81 nM. The compound `Cc1c(-c2ccc(=O)n(Cc3ccccn3)c2)c2cc(F)ccc2n1CC(=O)O` [Example 309, 2-(5-fluoro-2-methyl-3-(6-oxo-1-(pyridin-2-ylmethyl)-1,6-dihydropyridin-3-yl)-1H-indol-1-yl)acetic acid] registered an IC50 of 105 nM. The same measure for `Cc1c(-c2nn(CCc3ccc(F)cc3)c(=O)c3ccccc23)c2cc(F)ccc2n1CC(=O)O` [Example 227, 2-(5-fluoro-3-(3-(4-fluorophenethyl)-4-oxo-3,4-dihydrophthalazin-1-yl)-2-methyl-1H-indol-1-yl)acetic acid]: 3 nM; for `Cc1c(-c2cn(CCc3ccccc3)c(=O)c3c2CCCC3)c2cc(F)ccc2n1CC(=O)O` [Example 93, 2-(5-fluoro-2-methyl-3-(1-oxo-2-phenethyl-1,2,5,6,7,8-hexahydro-iso-quinolin-4-yl)-1H-indol-1-yl)acetic acid]: 21 nM; for `Cc1c(-c2nn(Cc3ccccc3F)c(=O)c3ccccc23)c2cc(F)ccc2n1CC(=O)O` [Example 113, 2-(5-fluoro-3-(3-(2-fluorobenzyl)-4-oxo-3,4-dihydrophthalazin-1-yl)-2-methyl-1H-indol-1-yl)acetic acid]: 14 nM. Consider `Cc1c(-c2nn(Cc3cc(F)ccc3F)c(=O)c3ccccc23)c2cc(Cl)ccc2n1CC(=O)O` [Example 59, 2-(5-Chloro-3-(3-(2,5-difluorobenzyl)-4-oxo-3,4-dihydrophthalazin-1-yl)-2-methyl-1H-indol-1-yl)acetic acid], for which the IC50 was found to be 12 nM. `Cc1c(Cc2ccc(=O)n(Cc3cccc(F)c3F)c2)c2ccccc2n1CC(=O)O` [Example 29] returned an IC50 of 72 nM. In turn, `Cc1c(Cc2ccc(=O)n(Cc3ccccc3)n2)c2cc(F)ccc2n1CC(=O)O` [Example 337, {3-[(1-benzyl-6-oxo-1,6-dihydropyridazin-3-yl)methyl]-5-fluoro-2-methyl-1H-indol-1-yl}acetic acid] yielded an IC50 of 10 nM. The same measure for `Cc1c(-c2ccc(=O)n(CC3CC3)n2)c2ccccc2n1CC(=O)O` [Example 184, 2-(3-(1-(cyclopropylmethyl)-6-oxo-1,6-dihydropyridazin-3-yl)-2-methyl-1H-indol-1-yl)acetic acid]: 62 nM.

As a reminder, the IC50 is the concentration that inhibits the measured activity by half. Read a high IC50 as a need for much substance.
